# Legend:
# [1] = target: T1, CDK4 (GST-CDK4(1-303end)/GST-CycD3(1-292end)) (Homo sapiens, UniProt P11802); assay: CDK4 activity inhibition experiment (Caliper mobility shift assay); type: biochemical; conditions: enzyme activity inhibition; read-out: CDK4 IC50 class
# T1 construct: GST-CDK4(1-303end); purchased Carna 04-105
# [2] = target: T2, CDK6 (GST-CDK6(1-326end)) (Homo sapiens, UniProt Q00534); assay: CDK6 activity inhibition experiment (Caliper mobility shift assay); type: biochemical; conditions: enzyme activity inhibition; read-out: CDK6 IC50 class
# T2 construct: GST-CDK6(1-326end); purchased Carna 04-107
# T2 sequence (Q00534 whole entry): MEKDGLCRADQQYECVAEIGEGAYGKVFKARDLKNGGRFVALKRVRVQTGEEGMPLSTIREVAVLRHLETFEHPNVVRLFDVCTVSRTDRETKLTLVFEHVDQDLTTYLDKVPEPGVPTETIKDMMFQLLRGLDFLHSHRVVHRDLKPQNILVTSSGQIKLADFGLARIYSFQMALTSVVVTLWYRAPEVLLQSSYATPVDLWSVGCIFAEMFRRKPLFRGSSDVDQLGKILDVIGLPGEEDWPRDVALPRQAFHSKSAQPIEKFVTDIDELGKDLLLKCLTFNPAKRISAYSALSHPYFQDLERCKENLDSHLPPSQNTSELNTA
# T2 sequence (P30281 whole entry partner): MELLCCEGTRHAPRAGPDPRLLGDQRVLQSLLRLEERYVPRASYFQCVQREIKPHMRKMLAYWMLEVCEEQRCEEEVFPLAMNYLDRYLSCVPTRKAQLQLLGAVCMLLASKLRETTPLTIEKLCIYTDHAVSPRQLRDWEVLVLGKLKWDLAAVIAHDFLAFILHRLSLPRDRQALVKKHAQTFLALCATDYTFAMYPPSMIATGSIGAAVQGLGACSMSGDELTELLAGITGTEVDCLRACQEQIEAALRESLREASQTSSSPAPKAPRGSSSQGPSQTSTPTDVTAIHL
# Description: The activity of CDK6 protein kinase was measured using Caliper mobility shift assay (see J. Biomol Screen 14:31, 2009). […] 10 μl of the 2.5 times diluted CDK6 enzyme solution (GST-CDK6(1-326end); Carna, Cat. No 04-107) was added and then incubated at room temperature for 10 minutes, then 10 μl of the 2.5 times diluted substrate solution Peptide FAM-P8 (GL Biochem, Cat. No. 112396) was added. After being incubated at 28° C. for 40 minutes, 25 μl of stop solution was added to stop the reaction. Conversion rate data was read from Caliper EZ Reader II (Caliper Life Sciences). The conversion rate data was converted into inhibition rate data. […] Conversion rate data was converted into inhibition rate data according to the method described above. Inhibition rate %=(max−conversion rate)/(max−min)×100.
# [3] = tested on: MDA-MB-231; assay: Tumor cell proliferation inhibition (CellTiter-Glo), MDA-MB-231; type: cell-based; conditions: Homo sapiens, 72 hours, 10% fetal bovine serum, read-out: MDA-MB-231 IC50 class
# Description: The content of adenosine triphosphate (ATP) was determined using the CellTiter-Glo Luminescent Cell Viability Assay Kit (Promega, Madison, Wis.) to evaluate cell viability. Tumor cell lines (SW620, ZR-75-1, MDA-MB-231) were purchased from the Cell Resource Center of IBS, Fudan University, Shanghai and the American Type Culture Collection (ATCC). The cell density was determined using Scepter automated cell counter (Millipore # PHCC00000) after the cells were digested with pancreatin in cell culture dishes and resuspended in DPBS medium. The cells were diluted to a solution of 44,000 cells per ml. The cell solution of which density was adjusted was added into the cell assay plate at 90 microliters per well. The well plate was incubated in an incubator with 5% CO2 at 37° C. for 24 hours and then added with test compounds with different concentrations. The cells were incubated with the compounds in the presence of 10% fetal bovine serum for 72 hours. ATP content was assayed using the CellTiter-Glo® Luminescent Cell Viability Assay kit (see instructions of manufacturer) to assess cell growth inhibition. Briefly, 30 μl of CellTiter-Glo® reagent was added to each well, rocked for 10 minutes to induce cell lysis, and […] were detected and recorded with Fluoroskan Ascent FL (Thermo). The maximum signal value was obtained from the cells treated with dimethyl sulfoxide for 72 hours. The minimum signal value was obtained from the separate culture medium (cell number was zero). Inhibition rate %=(maximum signal value−compound signal value)/(maximum signal value−minimum signal value)×100. Data was processed using GraphPad Prism V5.0 (GraphPad Software, San Diego, Calif.) software. IC50 values were calculated by fitting S-shaped dose-response curves.
# [4] = tested on: MDA-MB-435 breast cancer cells; assay: Pharmacodynamic experiment, MDA-MB-435 xenograft; type: in vivo, mouse
# Description: MDA-MB-435 breast cancer cells were obtained from Shanghai Cell Bank of Chinese Academy of Sciences. Cryopreserved cells were thawed in a 37° C. water bath and then placed in RPMI 1640 medium supplemented with 10% fetal bovine serum (FBS), 1% insulin (Bioman Biotech, Shanghai) and incubated in 5% CO2 of Tissue Culture Incubator. […] The sign of successful transplantation was the formation of a round bulging lump under the skin. Tumor size can be measured approximately two weeks after implantation. The tumor size was measured by a caliper.
# T1 sequence (P11802 whole entry): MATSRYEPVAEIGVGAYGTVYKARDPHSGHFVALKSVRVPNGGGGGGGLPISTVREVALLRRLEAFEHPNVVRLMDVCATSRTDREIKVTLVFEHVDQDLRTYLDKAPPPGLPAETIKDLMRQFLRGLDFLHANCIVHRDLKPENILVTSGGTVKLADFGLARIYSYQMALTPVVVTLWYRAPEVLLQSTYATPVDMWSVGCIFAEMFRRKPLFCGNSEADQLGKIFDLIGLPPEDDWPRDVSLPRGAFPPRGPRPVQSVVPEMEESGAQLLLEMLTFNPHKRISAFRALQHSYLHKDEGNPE
# T1 sequence (P30281 whole entry partner): as the sequence (P30281 whole entry partner) above
structure (smiles),measurement,setting,value
"CC(=O)c1c(C)c2cnc(Nc3ccc(C4CCN(CCS(C)(=O)=O)CC4)cn3)nc2n(C2CCCC2)c1=O [Compound 1, 6-acetyl-8-cyclopentyl-5-methyl-2-((5-(1-(2-(methylsulfonyl)ethyl)piperidin-4-yl)pyridin-2-yl)amino)pyrido[2,3-d]pyrimidin-7(8H)-one]",IC50,[1],< 10 nM
same,IC50,[2],10 to 50 nM
same,IC50,[3],100 to 500 nM
same,T/C value,"[4]; after 14 days of oral administration, PD-0332991 150 then 100 mg/kg once daily, Compound 1 75 mg/kg twice daily",25%
same,T/C value,[4]; day 6 after discontinuation (D20),32%

# From US10183941B2, “Pyrimidine or pyridopyridone compound and application thereof” (GUANGZHOU BEBETTER MEDICINE TECHNOLOGY CO., LTD., priority 2015, dated 2019)
